Data published in patent US20250020635A1, “ASSAY METHODS AND USES THEREOF FOR SCREENING ALZHEIMER'S DISEASE TREATMENT COMPOUNDS” (priority 2023, published 2025).
pEC50, pIC50: −log10 of the molar value. Like-named read-outs stand apart in the source and are kept apart here.

Columns and labels:
HMC3 cells = assay: Microglial phagocytosis/cell health high-content assay, HMC3 cells; assay type: cell-based; conditions: for pIC50: HMC3 cells, 48 hours treatment, read-out: inhibition of phagocytosis IC50; for Ave. % Cell Count @ 60 uM HMC3 cells / Ave. % Phagocytosis @ 60 uM HMC3 cells: 48 hrs, compared to control
Procedure: (§1) The assay introduced here is a simplified cellular imaging assay without any fixation and washing steps, while producing multiparameter measurements with high capacity using a 384-well plate format. The assay procedures include plating cells on day 1, incubating cell plates overnight before treating cells on day 2, adding pHrodo™-myelin/membrane debris to cell plates on day 3, and 20 hr later, staining cell nuclei with Hoechst-33342 for 30 min before performing high-content imaging on day 4. Three selected parameters are measured from cells: 1) mean total fluorescence intensity per cell of pHrodo™-myelin/membrane debris in phagocytosis vesicles to quantify phagocytosis; 2) cell counts per well to quantify treatment effects on proliferation and cell death; and 3) average nuclear intensity to quantify treatment-induced nuclear changes such as in apoptosis. The assay has been used on HMC3 cells (an immortalized human microglial cell line), BV2 cells (an immortalized mouse microglial cell line), and primary microglia isolated from mouse brains. For initial assay attempts, we recommend using HMC3 cells available from the ATCC.
(§2) All collected raw data are normalized to the untreated control with following formula: % of control=100×(X−Min)/(Max−Min). Factors in the formula are: X is raw data from a treated well, Max is an average measurement from pHrodo™-myelin seeded but untreated wells, and Min is an average measurement from no pHrodo™-myelin untreated wells. Normalized data are used for curve fitting that is done with the variable slope (four parameters) using the Prism software.
(§3) To ensure that the measurements reflect the steady state of compound treatment effects and cell health, the assay was set with a total compound treatment time of 48 hr, including pHrodo™-myelin/membrane debris seeding performed 20-24 hr after compound addition. […] Among many available quantitative measurements from the image analysis, we selected three parameters for the assay:
(§4) 1) The mean total intensity of phagocytosis vesicles/cell—to measure phagocytosis. There are multiple parameters generated from the image analysis, including phagocytosis vesicle area, number, and various fluorescence intensity measurements. Comparing these parameters, the total fluorescence intensity of vesicles/cell is the most sensitive one and was chosen for quantifying phagocytosis.
(§5) 2) The total cell counts—to measure overall cell viability, which is affected by proliferation and cell death. We chose to take 4 images/well (with the 10× objective lens) that cover about 50% of the total area of a well in a 384-well plate to represent cell count of the well.
(§6) 3) The average nuclear intensity—to measure drug-induced apoptosis, with high signal indicating nuclear condescension (a sign of early apoptosis) and low signal indicating DNA degradation (a sign of later apoptosis, when activated caspases digest DNA).
(§7) A phenotypic high-content imaging assay with simultaneous measurements of phagocytosis, cell number, and nuclear intensity was used to assess both cellular pharmacology and cell health. Model cell lines BV2 (immortalized mouse microglia, a gift from Dr. Michelle Block's laboratory at IUSM) and HMC3 (immortalized human microglia, obtained from ATCC, CRL-3304) were used to provide adequate throughput. Cells were cultured in DMEM GlutaMax media (ThermoFisher) containing 10% FBS and Pen-Strep in a 37° C. 5% CO2 incubator, plated in Corning Falcon 384 well Optilux Black and clear bottom plates: 400 cells/45 μl/well (BV2 cells), 600 cells/45 μl/well (HMC3 cells) and 2000 cell/45 μl/well (primary cells), and treated with 10× serially diluted compounds (60 μM-3 nM) for 48 hrs at 37° C. […]

BV2 cells = assay: Microglial phagocytosis/cell health high-content assay, BV2 cells; assay type: cell-based; conditions: for Ave. % Cell Count @ 60 uM BV2 cells / Ave. % Phagocytosis @ 60 uM BV2 cells: 48 hrs, compared to control; for phagocytosis increase against cell count decline: HMC3 and BV2 cells (Table 6, FIGS. 21, 22)
Procedure: as §1, §2, §3, §4, §5, §6, §7

PLCγ2-HiBit = target: T1, PLCγ2-HiBit (Homo sapiens, UniProt P16885); assay: Cellular thermal shift assay (SplitLuc CETSA), PLCγ2-HiBit in HMC3 cells; assay type: cell-based; conditions: for PLCγ2-HiBit %, percent luminescence at highest dose compared to control (DMSO): 100 μM
T1 construct: expressed in transfected cells; host or cells: HMC3 cells
T1 sequence (P16885 1-1265): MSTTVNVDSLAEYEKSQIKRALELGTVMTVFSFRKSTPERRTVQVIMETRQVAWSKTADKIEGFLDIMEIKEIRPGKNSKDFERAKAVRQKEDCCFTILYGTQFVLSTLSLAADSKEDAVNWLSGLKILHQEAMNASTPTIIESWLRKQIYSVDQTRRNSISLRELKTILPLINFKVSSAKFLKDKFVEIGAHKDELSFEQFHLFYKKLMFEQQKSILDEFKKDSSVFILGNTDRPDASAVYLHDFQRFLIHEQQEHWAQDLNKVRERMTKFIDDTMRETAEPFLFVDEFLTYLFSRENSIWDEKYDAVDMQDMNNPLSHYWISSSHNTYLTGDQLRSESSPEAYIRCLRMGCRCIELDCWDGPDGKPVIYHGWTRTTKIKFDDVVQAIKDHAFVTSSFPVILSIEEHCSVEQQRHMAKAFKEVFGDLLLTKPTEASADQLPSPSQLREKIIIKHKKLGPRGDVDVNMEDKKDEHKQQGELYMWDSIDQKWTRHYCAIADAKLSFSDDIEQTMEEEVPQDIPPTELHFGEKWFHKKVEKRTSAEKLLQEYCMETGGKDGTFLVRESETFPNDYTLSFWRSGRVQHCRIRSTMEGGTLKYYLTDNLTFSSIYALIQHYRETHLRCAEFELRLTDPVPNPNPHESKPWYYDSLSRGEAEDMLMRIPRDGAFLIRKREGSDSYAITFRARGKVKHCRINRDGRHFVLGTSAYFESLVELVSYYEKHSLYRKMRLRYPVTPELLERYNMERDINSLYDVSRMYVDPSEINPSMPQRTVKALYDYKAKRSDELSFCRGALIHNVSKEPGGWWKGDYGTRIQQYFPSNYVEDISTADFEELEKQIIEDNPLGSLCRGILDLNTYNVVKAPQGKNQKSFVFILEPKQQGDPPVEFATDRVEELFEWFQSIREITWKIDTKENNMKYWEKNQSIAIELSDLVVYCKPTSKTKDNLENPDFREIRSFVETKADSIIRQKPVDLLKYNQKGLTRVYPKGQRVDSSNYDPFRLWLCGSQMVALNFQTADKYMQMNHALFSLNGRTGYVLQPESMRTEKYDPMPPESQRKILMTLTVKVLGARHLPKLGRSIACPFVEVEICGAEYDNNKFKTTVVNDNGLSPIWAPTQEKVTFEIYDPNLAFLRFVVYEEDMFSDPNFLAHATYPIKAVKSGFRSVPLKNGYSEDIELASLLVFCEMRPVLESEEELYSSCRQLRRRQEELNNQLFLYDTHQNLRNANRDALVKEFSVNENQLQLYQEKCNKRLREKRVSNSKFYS
Excerpt: These compounds have been evaluated using a wide variety of assay classes namely target engagement utilizing cellular thermal shift assay (CETSA),^34 affinity selection mass spectrometry (ASMS),^35 biochemical activity employing the fluorogenic probe XY-69,^36 and cellular activity testing for phagocytosis. Cellular Thermal Shift Assays (CETSA) assess cellular target engagement by quantifying changes in protein thermal stability upon ligand binding to endogenous proteins in intact cells.^34 For SAR studies, a split Nano Luciferase (SplitLuc CETSA) version of the assay was utilized to provide sufficient throughput.^37,38 HMC3 cells were stably transfected with PLCγ2-HiBit to enable protein expression in a physiologically relevant cellular context. The thermal stability of this HiBit-labeled protein in intact cells was measured in the following two formats. In the initial screen, using 96-well plates, cells were treated with FBS analogs at a single concentration (100 μM) at 37° C. for 60 min and then exposed to a 3-minute isothermal heating step at 45.9° C. (experimentally determined Tm of PLCγ2-HiBit). Luminescence detection was then conducted with the Nano-Glo HiBit Lytic detection kit (Promega, Cat. N3040).^38 Compound treatment was performed in triplicate, and raw signals were normalized to the mean of the controls (in the same plate) as % of control. When the difference in compound-treated cells >control mean+3SD, the compound was considered positive and selected for further testing with dose-response CETSA. In the dose response CETSA, cells were treated with decreasing concentrations from 100 μM with 1:3 serial dilutions to generate an 8-point curve. An AC50 was calculated with the % of control data using a four-parameter logistic curve regression model, and the percent luminescence remaining at the highest concentration is also reported for the compounds when the difference from the DMSO control is greater than 3× the standard deviation (SD). Otherwise, an AC50 was not calculated.

HiBit only = assay: Cellular thermal shift assay (CETSA), HiBit only control; assay type: cell-based, human; conditions: for HiBit only %, percent luminescence at highest dose with HiBit only compared to control (DMSO): 100 μM; for HiBit only % @100 μM: Table 1
MDCK = MDCK permeability; assay type: in vitro ADME; conditions: estimate of intestinal absorption
Procedure: (§8) Physicochemical and ADME properties were determined using the following assays: microsomal stability intrinsic clearance (Clint) in mouse liver microsomal solution, MDCK permeability (Papp), protein binding (fu) in mouse plasma, and kinetic solubility in pH 7.4 phosphate buffer (Table 7).

[1] = Kinetic solubility in pH 7.4 phosphate buffer; assay type: physicochemical
Procedure: as §8

[2] = Table 1, CETSA dose response, read-out: AC50
[3] = Table 5, 8-point dose response from 100 μM, HMC3 cells, 45.9° C., read-out: AC50, concentration that induced a half-maximum loss of luminesce compared to control

Row | SMILES | pIC50 (HMC3 cells) | pIC50 (HMC3 cells; Homo sapiens, HMC3, 48 h) | effect on phagocytosis (BV2 cells; BV2 cells, 48 hours treatment) | pEC50 (BV2 cells; Mus musculus, BV-2, BV2 cells, 48 hours treatment, 60 μM the maximal dose, read-out: stimulation of phagocytosis EC50) | pIC50 (BV2 cells; Mus musculus, BV-2, BV2 cells, 48 hours treatment, read-out: cell count decrease IC50) | pEC50 (BV2 cells; Mus musculus, BV-2, BV2 cells, 48 hours treatment, read-out: nuclear intensity increase EC50) | PLCγ2-HiBit %, percent luminescence at highest dose compared to control (DMSO) (PLCγ2-HiBit) [%] | PLCy2-HiBit % @100 (PLCγ2-HiBit; Table 1) [%] | AC50 (PLCγ2-HiBit; [2]) [µM] | AC50 (PLCγ2-HiBit; [3]) [µM] | HiBit only %, percent luminescence at highest dose with HiBit only compared to control (DMSO) (HiBit only) [%] | HiBit only % @100 μM (HiBit only) [%] | Ave. % Cell Count @ 60 uM HMC3 cells (HMC3 cells) [%] | Ave. % Phagocytosis @ 60 uM HMC3 cells (HMC3 cells) [%] | Ave. % Cell Count @ 60 uM BV2 cells (BV2 cells) [%] | Ave. % Phagocytosis @ 60 uM BV2 cells (BV2 cells) [%] | phagocytosis increase against cell count decline (BV2 cells) | Papp, MDCK permeability (MDCK) | Kinetic solubility [1] [µM]
1 | CC[C@H](Nc1ncnc2[nH]cnc12)c1nc2cccc(F)c2c(=O)n1-c1ccccc1 [Idelalisib, reference compound] | 6.28 | ~6.30 | did not inhibit phagocytosis in BV2 cells, but increased phagocytosis in parallel with decreasing cell counts and increasing nuclear intensity | < 4.22 | 4.66 | 5.38 |  |  |  |  |  |  |  |  |  |  |  |  | 
2 | Cc1cccc(NS(=O)(=O)c2c(C)cc(C)cc2C)c1 [Compound 5] |  |  |  |  |  |  | 54 | 54 | > 100 | > 100 | 95 | 96 | 78 | 111 | 45 | 165 | the increase was paired with a sharp cell count decline |  | 
3 | Cc1cc(C)c(S(=O)(=O)Nc2cccc(C(F)F)c2)c(C)c1 [Compound 7] |  |  |  |  |  |  | 78 | 78 |  |  | 104 | 104 | 6 | 0 | 2 | 0 |  | 37.4 ×10−^6 cm/s | 41 to 60
4 | Cc1cc(Br)ccc1S(=O)(=O)Nc1cccc(C(F)(F)F)c1 [Compound 10] |  |  |  |  |  |  | 17 | 17 | 57 | 57 | 40 | 40 | 11 | 93 | 1 | 434 | the increase was paired with a sharp cell count decline |  | 
